Experimental data reported in PubChem BioAssay (NCI).
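Grown in 96-well plates, cells were treated for 48 hours with each compound at five concentrations. Insufficient inhibition: endpoint recorded as highest concentration tested. TGI marks complete inhibition of growth.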

What was measured:
Test in all cases: inhibition of tumour cell growth, NCI panel, 48 h
U251 CNS = tested on: U251 CNS
HT29 colon = tested on: HT29 colon
SW-620 colon = tested on: SW-620 colon
TK-10 renal = tested on: TK-10 renal
NCI-H23 lung = tested on: NCI-H23 lung
SK-OV-3 ovarian = tested on: SK-OV-3 ovarian
ACHN renal = tested on: ACHN renal
CCRF-CEM leukemia = tested on: CCRF-CEM leukemia
HOP-92 NSCLC = tested on: HOP-92 NSCLC
SK-MEL-5 melanoma = tested on: SK-MEL-5 melanoma
BT-549 breast = tested on: BT-549 breast
SF-268 CNS = tested on: SF-268 CNS

Structure (SMILES) | TGI (U251 CNS) [µM] | TGI (HT29 colon) [µM] | TGI (SW-620 colon) [µM] | TGI (TK-10 renal) [µM] | TGI (NCI-H23 lung) [µM] | TGI (SK-OV-3 ovarian) [µM] | TGI (ACHN renal) [µM] | TGI (CCRF-CEM leukemia) [µM] | TGI (HOP-92 NSCLC) [µM] | TGI (SK-MEL-5 melanoma) [µM] | TGI (BT-549 breast) [µM] | TGI (SF-268 CNS) [µM]
NC12CC3CC(C1)CC(Cl)(C3)C2 | > 100 | > 100 | > 100 | > 100 | > 100 | > 100 | > 100 | > 100 | > 100 | – | – | –
C=C(C)[C@@H]1CC[C@@H](C)[C@](O)([C@@H]2C[C@@H]([C@H](COC(=O)c3ccccc3)OC(=O)c3ccccc3)OC2=O)C1 | > 100 | > 100 | > 100 | > 100 | > 100 | > 100 | > 100 | > 100 | – | > 100 | > 100 | > 100
COc1ccc(C2CCC(Cl)(OC)CC2C=O)cc1 (stereo not drawn) | > 100 | > 100 | > 100 | > 100 | > 100 | > 100 | > 100 | > 100 | > 100 | > 100 | – | 97.3
COC(=O)[C@H]1C=C[C@@H](C)n2c(=O)c3ccccc3c(=O)n21 | > 100 | > 100 | > 100 | > 100 | > 100 | > 100 | > 100 | > 100 | > 100 | > 100 | – | > 100
CC(=O)OC1OC2C(NC(=O)OC(C)(C)C)C1CC2(OCc1ccccc1)OCc1ccccc1 (stereo not drawn) | 32.4 | > 100 | > 100 | 44.3 | 41.7 | 74.9 | 80 | 82.9 | 30.3 | 33.1 | – | > 100
Cc1[nH]n(-c2nc3c(c(=O)[nH]2)CCC3)c(=O)c1CCO | > 100 | > 100 | > 100 | > 100 | > 100 | > 100 | > 100 | > 100 | – | > 100 | – | > 100
CCOC(=O)C1=C(O)c2ccccc2C(=O)C1=O | > 100 | > 100 | > 100 | > 100 | > 100 | > 100 | > 100 | > 100 | > 100 | > 100 | – | > 100
O=[N+]([O-])/C(Cl)=C(\Nc1ccccc1)C(Cl)=C(Cl)Cl | > 100 | 69.9 | – | > 100 | > 100 | > 100 | > 100 | 42.9 | 69.5 | 47 | – | > 100
COc1ccc2c(c1)N(C(C)=O)CN1C(=O)CCC21 (stereo not drawn) | > 100 | > 100 | > 100 | > 100 | > 100 | > 100 | > 100 | > 100 | > 100 | > 100 | – | > 100
c1ccc2[nH]c3[nH]c4[nH]c5ccccc5[nH]c4[nH]c3[nH]c2c1 | > 100 | > 100 | > 100 | > 100 | > 100 | > 100 | > 100 | > 100 | – | > 100 | > 100 | > 100
OCC(O)COc1c(Cl)ccc(Cl)c1Cl (stereo not drawn) | > 100 | > 100 | > 100 | > 100 | > 100 | > 100 | > 100 | > 100 | > 100 | > 100 | – | > 100
CCOc1ccc(N/C(=C(/C(Cl)=C(/Cl)NCCO)[N+](=O)[O-])n2nnc3ccccc32)cc1 | 58.7 | 85.3 | 39.9 | – | 33 | > 100 | 48.4 | > 100 | – | – | 38.6 | 41
CC1(C)C=C(/C=N/Nc2ccc(Br)cc2)C(C#N)=C(O)C1(C#N)C#N | – | > 100 | > 100 | > 100 | > 100 | > 100 | > 100 | > 100 | 65.7 | > 100 | – | > 100
COc1ccc(/C=C2\N=C(c3ccccc3)N(Nc3nnc(NN4C(=O)/C(=C/c5ccc(OC)cc5)N=C4c4ccccc4)c4ccccc34)C2=O)cc1 | > 100 | > 100 | > 100 | – | > 100 | – | > 100 | > 100 | > 100 | > 100 | – | > 100
CN(C)CCCSc1c2ccccc2nc2cc(NCC(=O)Nc3ccccc3-c3ccccc3NC(=O)CNc3ccc4c(SCCCN(C)C)c5ccccc5nc4c3)ccc12 | > 100 | > 100 | > 100 | > 100 | > 100 | > 100 | > 100 | 92.7 | > 100 | > 100 | – | > 100
NC(=O)C12C3C4C1C1C2C3C41C(N)=O (stereo not drawn) | > 100 | > 100 | > 100 | > 100 | > 100 | > 100 | > 100 | > 100 | > 100 | > 100 | – | > 100
CC(=O)c1c(O)ccc2c1CC(CC=O)O2 (stereo not drawn) | > 100 | > 100 | > 100 | > 100 | > 100 | > 100 | > 100 | > 100 | > 100 | > 100 | – | > 100
CC(=O)NCC1(c2ccccc2)CCN(CC2COc3ccccc3O2)CC1 (stereo not drawn) | > 100 | > 100 | > 100 | > 100 | > 100 | > 100 | > 100 | > 100 | – | > 100 | – | > 100
COC1=CC(C2c3cc4c(cc3[C@@H](Nc3ccc([N+](=O)[O-])cc3)C3COC(=O)[C@H]23)OCO4)=CC(=O)C1=O (stereo partly drawn) | 4.75 | 35.8 | > 66.4 | 43 | 4.68 | 6.98 | 4.43 | > 25.3 | > 53 | 19.9 | – | 12.6
CO[C@@](c1ccccc1)(c1nc(C#N)c(N)o1)C(F)(F)F | > 100 | – | > 100 | > 100 | > 100 | > 100 | > 100 | 74.7 | > 100 | > 100 | – | –
CC1=Nc2c([nH]c(=S)[nH]c2=O)NC(c2ccc(Cl)c(Cl)c2)C1 (stereo not drawn) | 31.1 | 59.6 | > 57.7 | > 87.7 | 40.2 | 95.6 | > 100 | > 100 | > 100 | > 60.7 | – | > 93.1

Structure (SMILES) | TGI (U251 CNS) [µM] | TGI (HT29 colon) [µM] | TGI (SW-620 colon) [µM] | TGI (TK-10 renal) [µM] | TGI (NCI-H23 lung) [µM] | TGI (SK-OV-3 ovarian) [µM] | TGI (ACHN renal) [µM] | TGI (CCRF-CEM leukemia) [µM] | TGI (HOP-92 NSCLC) [µM] | TGI (SK-MEL-5 melanoma) [µM] | TGI (BT-549 breast) [µM] | TGI (SF-268 CNS) [µM]
Cc1nccc2c1cnc1ccnn12 | > 100 | > 100 | > 100 | > 100 | > 100 | > 100 | > 100 | > 100 | > 100 | > 100 | – | > 100
CCOC(=O)c1nnsc1NC(=O)Nc1ccc(Cl)cc1 | > 100 | > 100 | > 100 | > 100 | > 100 | – | > 100 | > 100 | – | > 100 | > 100 | > 100
CCCCSC1=N/C(=C\c2ccco2)C(=O)N1 | > 100 | > 100 | > 100 | > 100 | > 100 | > 100 | > 100 | > 100 | – | > 100 | > 100 | > 100
NC1=NC2(O)c3ccccc3C(=O)C2(O)N1 (stereo not drawn) | > 100 | > 100 | > 100 | > 100 | > 100 | > 100 | > 100 | > 100 | > 100 | > 100 | – | > 100
CC1(C)OC(=O)C(C)(C)OC1=O | > 100 | > 100 | > 100 | > 100 | > 100 | > 100 | > 100 | > 100 | > 100 | > 100 | – | > 100
COc1ccc(C2CC(=O)Oc3ccccc3O2)cc1 (stereo not drawn) | > 100 | > 100 | > 100 | > 100 | > 100 | > 100 | > 100 | > 100 | – | > 100 | > 100 | > 100
COC(=O)C(/C(=N/N)C(=O)Nc1cc(Cl)c(Cl)cc1Cl)c1nc2ccc(Cl)cc2[nH]c1=O (stereo not drawn) | > 100 | > 100 | > 100 | > 100 | > 100 | > 100 | > 100 | – | > 100 | > 100 | > 100 | > 100
CN1CC2=C(NC(=S)NC2c2ccc(Cl)cc2)/C(=C/c2ccc(Cl)cc2)C1 (stereo not drawn) | 33.3 | 34 | 30.3 | > 100 | 43.8 | 31.4 | 57.9 | 30.9 | – | 26.8 | 48.6 | 50.4
O=C1C(Cl)C(c2ccc(Cl)cc2)N1n1cnc2ccccc2c1=O (stereo not drawn) | > 100 | > 100 | > 100 | > 100 | > 100 | > 100 | > 100 | > 100 | – | > 100 | – | > 100
O=C(O)c1cc(-c2ccccc2O)nc2ccccc12 | > 100 | > 100 | > 100 | > 100 | > 100 | > 100 | > 100 | > 100 | – | > 100 | – | > 100
CC1(C)[C@@H]2C[C@H]1C(Cc1ccc(C[C@H]3c4cc(-c5ccccn5)ncc4[C@H]4C[C@@H]3C4(C)C)cc1)c1cc(-c3ccccn3)ncc12 (stereo partly drawn) | 19.7 | > 100 | > 100 | > 100 | 37 | > 100 | > 100 | – | – | 7.81 | > 100 | 28.6
CCOC(OCC)c1ccc(/C=C/c2cc(OC)c(OC)c(OC)c2)cc1 | 32.2 | 33.6 | 56.3 | 82 | – | – | > 100 | 37.3 | 64.7 | 28.5 | – | 71.8
CC(=N/NC(=S)Nc1c(C)n(C)n(-c2ccccc2)c1=O)/C(C)=N\NC(=S)Nc1c(C)n(C)n(-c2ccccc2)c1=O | > 100 | > 100 | > 100 | > 100 | > 100 | > 100 | > 100 | – | > 100 | > 100 | > 100 | > 100
C#CCCOC1(OC)N=NC(C)(C)O1 (stereo not drawn) | > 100 | > 100 | > 100 | – | > 100 | – | > 100 | > 100 | > 100 | > 100 | – | > 100
COc1cccc(/C(C=O)=C(\Cl)c2ccc(OC)c(OC)c2)c1 | 27.4 | 27.5 | 29.6 | 73 | 24.9 | 58.8 | 26.4 | 33.5 | 38.7 | 25.3 | – | 25.3
O=C(/C=C/c1c(O)ccc2ccccc12)c1cccc2ccccc12 | > 100 | > 100 | > 51.6 | > 100 | > 100 | > 100 | > 100 | > 67.8 | > 100 | > 100 | – | > 100
CO/C(=N\N=C\c1ccc(OC)cc1OC)c1ccncc1 | > 10 | – | > 10 | > 10 | > 10 | > 10 | > 10 | > 10 | – | > 10 | – | > 10
CCOC(=O)c1nc2ccc(Cl)cc2c2c1CCO2 | > 100 | > 100 | > 100 | > 100 | > 100 | > 100 | > 100 | > 100 | – | > 100 | – | > 100
NC(=O)C(=CN1C(=O)CC(=O)NC1=S)C(N)=O | > 100 | > 100 | > 100 | > 100 | > 100 | > 100 | > 100 | – | > 100 | > 100 | > 100 | > 100
CC1(C)C=[N+]([O-])C(C)(C)N1 | > 100 | > 100 | > 100 | > 100 | > 100 | > 100 | > 100 | > 100 | > 100 | > 100 | – | > 100
